Earlier results in US20120022018A1, “ANTI-VIRAL PROPERTIES OF ALOE VERA AND ACQUIRED IMMUNE DEFICIENCY SYNDROME (AIDS) TREATMENT” (NORTH TEXAS MEDICAL ASSOCIATES, priority 2010, published 2012).

Key:
[1] = system: HIV-1 envelope glycoprotein; conditions: HIV-1 infected monocytes cultures; instead of usual GP-160, GP-120, GP-41 bands
[2] = system: New Castle and paramyxoviruses; conditions: New Castle and paramyxoviruses in culture; altered envelope glycoproteins
[3] = system: monocytic/macrophagic (M/M) cell counts; conditions: in vivo

Substance: Acemannan
- effect on HIV-1 envelope glycoprotein [1]: induced the production of multiple molecular weights of HIV-1 envelope glycoprotein
- effect on infectivity of virions [2]: rendered the virions incapable of infecting susceptible target cell lines as well as animals
- monocytic/macrophagic (M/M) cell counts [3]: increase
